The values that follow come from patent publication US6821743B2, “Human endothelin receptor” (Shionogi Sieyaku Kabushiki Kaisha, priority 1991, dated 2004).

The test system of assay [1] is rat A-10 vascular smooth muscle cell. The note with it: J. Biol. Chem. 265, 14044-14049 (1990); cited from earlier work.
The conditions of assay [2]: in vivo, previously shown; cited from earlier work.
Assay [3] concerns the target T1, ETA-receptor (Homo sapiens, UniProt P25101).
T1 sequence (P25101 21-427): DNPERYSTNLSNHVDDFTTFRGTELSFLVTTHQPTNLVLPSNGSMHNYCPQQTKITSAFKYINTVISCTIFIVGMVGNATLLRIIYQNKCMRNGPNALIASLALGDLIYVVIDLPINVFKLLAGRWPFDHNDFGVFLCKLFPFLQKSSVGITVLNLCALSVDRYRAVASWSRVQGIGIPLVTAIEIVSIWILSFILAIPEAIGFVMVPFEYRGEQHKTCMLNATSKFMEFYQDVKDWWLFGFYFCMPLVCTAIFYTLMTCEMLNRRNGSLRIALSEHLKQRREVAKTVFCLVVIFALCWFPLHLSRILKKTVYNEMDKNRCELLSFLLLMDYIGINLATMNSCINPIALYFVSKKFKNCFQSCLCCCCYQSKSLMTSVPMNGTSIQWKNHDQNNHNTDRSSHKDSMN
Kind of assay: Competitive 125I-ET-1 binding assay on COS-7 cells transfected with CDM8-phETIR. More on the design: expressed in transfected cells; host or cells: COS-7 cells. The note with it: displacement of 50 pM 125I-ET-1, transfected COS-7 cells, 37° C. for 60 min.

Another assay addresses T2, ETB-receptor (Homo sapiens, UniProt P24530).
T2 construct: expressed in transfected cells; host or cells: COS-7 cells
T2 sequence (P24530 27-442): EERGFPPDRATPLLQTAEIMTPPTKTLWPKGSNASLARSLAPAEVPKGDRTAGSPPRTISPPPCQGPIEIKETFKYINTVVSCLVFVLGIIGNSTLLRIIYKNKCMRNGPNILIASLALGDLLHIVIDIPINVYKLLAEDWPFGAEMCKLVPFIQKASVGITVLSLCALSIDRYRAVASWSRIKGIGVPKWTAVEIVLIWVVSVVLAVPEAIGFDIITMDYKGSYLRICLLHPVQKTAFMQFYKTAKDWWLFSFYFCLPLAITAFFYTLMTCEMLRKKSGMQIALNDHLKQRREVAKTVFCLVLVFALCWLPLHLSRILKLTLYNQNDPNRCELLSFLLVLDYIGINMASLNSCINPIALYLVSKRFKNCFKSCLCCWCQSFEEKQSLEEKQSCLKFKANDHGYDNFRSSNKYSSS
The experiment in a line: Competitive 125I-ET-1 binding assay on COS-7 cells transfected with CDM8-pHETBR.

Assay [4] deals with T1, ETA-receptor. Kind of assay: Inward current in Xenopus laevis oocytes injected with ETA-receptor mRNA. The class given is cell-based. The following applies: 1×10^−7 M peptide, holding potential −60 mV, 20° C.

In general, IC50 refers to the concentration at which inhibition is half-maximal. Low values mean greater potency in that assay, high ones weaker potency in that assay.

“Also recorded” adds a separate entry of the source. Bridge positions count the residues as written; N and C are the ends. Peptide text beside a SMILES is read from it.

Regarding `CC[C@H](C)[C@H](NC(=O)[C@H](CC(=O)O)NC(=O)[C@H](CC(C)C)NC(=O)[C@H](Cc1c[nH]cn1)NC(=O)[C@@H]1CSSC[C@H](N)C(=O)N[C@@H](CO)C(=O)N[C@H]2CSSC[C@H](NC(=O)[C@H](CCC(=O)O)NC(=O)[C@H](CCCCN)NC(=O)[C@H](CC(=O)O)NC(=O)[C@H](CCSC)NC(=O)[C@H](CC(C)C)NC(=O)[C@H](CO)NC(=O)[C@H](CO)NC2=O)C(=O)N[C@@H](C(C)C)C(=O)N[C@@H](Cc2ccc(O)cc2)C(=O)N[C@@H](Cc2ccccc2)C(=O)N1)C(=O)N[C@H](C(=O)N[C@@H](Cc1c[nH]c2ccccc12)C(=O)O)[C@@H](C)CC` [ET-1, Endothelin 1], the “inhibition of binding of 125I-ET-1” value in assay [1] was “inhibit the binding of ^125I-ET-1”. Besides, the vasoconstrictor strength entry in assay [2] is “much more strong vasoconstrictors than ET-3”.

Regarding `CC[C@H](C)[C@H](NC(=O)[C@H](CC(=O)O)NC(=O)[C@H](CC(C)C)NC(=O)[C@H](Cc1cnc[nH]1)NC(=O)[C@@H]1CSSC[C@H](N)C(=O)N[C@@H](CO)C(=O)N[C@H]2CSSC[C@H](NC(=O)[C@H](CCC(=O)O)NC(=O)[C@H](CCCCN)NC(=O)[C@H](CC(=O)O)NC(=O)[C@H](CC(C)C)NC(=O)[C@H](Cc3c[nH]c4ccccc34)NC(=O)[C@H](CO)NC(=O)[C@H](CO)NC2=O)C(=O)N[C@@H](C(C)C)C(=O)N[C@@H](Cc2ccc(O)cc2)C(=O)N[C@@H](Cc2ccccc2)C(=O)N1)C(=O)N[C@H](C(=O)N[C@@H](Cc1c[nH]c2ccccc12)C(=O)O)[C@@H](C)CC` [ET-2, Endothelin 2] (H-CSCSSWLDKECVYFCHLDIIW-OH; disulfide 1-15, 3-11), the IC50 is 6.1 nM on ETA-receptor [3] and approximately 1 nM at ETB-receptor (displacement of 125I-ET-1, COS cell transformed with CDM8-pHETBR).

For the compound `CC[C@H](C)[C@H](NC(=O)[C@H](CC(=O)O)NC(=O)[C@H](CC(C)C)NC(=O)[C@H](Cc1c[nH]cn1)NC(=O)[C@@H]1CSSC[C@H](N)C(=O)N[C@@H](CO)C(=O)N[C@H]2CSSC[C@H](NC(=O)[C@H](CCC(=O)O)NC(=O)[C@H](CCCCN)NC(=O)[C@H](CC(=O)O)NC(=O)[C@H](CC(C)C)NC(=O)[C@H](Cc3c[nH]c4ccccc34)NC(=O)[C@H](CO)NC(=O)[C@H](CO)NC2=O)C(=O)N[C@@H](C(C)C)C(=O)N[C@@H](Cc2ccc(O)cc2)C(=O)N[C@@H](Cc2ccccc2)C(=O)N1)C(=O)N[C@H](C(=O)N[C@@H](Cc1c[nH]c2ccccc12)C(=O)O)[C@@H](C)CC` [ET-2, Endothelin 2] (H-CSCSSWLDKECVYFCHLDIIW-OH; disulfide 1-15, 3-11; N-terminus and C-terminus assumed), the “inhibition of binding of 125I-ET-1” value in assay [1] was “inhibit the binding of ^125I-ET-1”. The vasoconstrictor strength result in assay [2] was “much more strong vasoconstrictors than ET-3”. For the same compound, the “affinity of the receptor (FIG. 4)” value on ETB-receptor (transformant containing CDM8-pHETBR) is reported as “almost the same affinity”. Further, at ETA-receptor [4], the “inward current recorded from the oocyte” value is “the same value of current; also recorded: A similar inward current”.
